Data on two compounds can be found in ChEMBL document CHEMBL1201862, “PubChem BioAssay data set” (2004).

Some test systems named below: A549; CCRF-CEM; SNB-19; U-251; MDA-N; HL-60; SK-MEL-28; EKVX; NCI/ADR-RES; HCC 2998; MDA-MB-435; LOX IMVI; TK-10; OVCAR-4; NCI-H522; SNB-75; IGROV-1; MOLT-4; M14; MCF7.
Common to all, as to assay: inhibition of tumour cell growth, NCI panel, 48 h

Molecules are shown by their SMILES.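 How tested: cells in 96-well plates exposed to compound for 48 hours at five concentrations. GI50 = concentration required for 50% inhibition of growth.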 Active and inactive are the calls of the source. No stated cut-off is given here; in the data, active = GI50 up to about 1.1 µM and inactive = higher. Bounds are passed on as bounds.

On to `Cc1cc(O)c2c(=O)c3ccccc3[nH]c2c1`, for which the GI50 is 29.4 µM (inactive) with A549; 24.1 µM (inactive) with CCRF-CEM; 38.5 µM (inactive) in the test on SNB-19; 40.8 µM (inactive) in the test with U-251; 42.9 µM (inactive) with MDA-N; 28.3 µM (inactive) in the test on HL-60. Besides, the GI50 with SK-MEL-28 is 42.7 µM (inactive); in the test with EKVX it was 41.1 µM (inactive); with NCI/ADR-RES it was 23.5 µM (inactive); with HCC 2998 it was 37.3 µM (inactive); with MDA-MB-435, 27.4 µM (inactive); in the test on LOX IMVI it was 18.8 µM (inactive). For the same compound, the GI50 is 49.2 µM (inactive) with TK-10; 15.1 µM (inactive) in the test with OVCAR-4; 3.56 µM (inactive) in the test with NCI-H522; 29.2 µM (inactive) with SNB-75; 13.3 µM (inactive) with IGROV-1; 36.3 µM (inactive) in the test with MOLT-4. The results for the GI50 in the test on M14 and with MCF7 were 18.1 µM (inactive) and 0.133 µM (active), respectively.
For the compound `Cc1c(N)nc([C@H](CC(N)=O)NC[C@H](N)C(N)=O)nc1C(=O)N[C@H](C(=O)N[C@H](C)[C@@H](O)CC(=O)N[C@H](C(=O)NC(O[C@@H]1O[C@@H](C)[C@@H](N)[C@@H](O)[C@H]1O)C(O)c1nc(-c2nc(C(=O)NCCC[S+](C)C)cs2)cs1)[C@@H](C)O)[C@H](O[C@@H]1O[C@@H](CO)[C@@H](O)[C@H](O)[C@@H]1O[C@H]1O[C@H](CO)[C@@H](O)[C@H](OC(N)=O)[C@@H]1O)c1c[nH]cn1` (stereo not given in full), the GI50 was 19.7 µM (inactive) in the test on A549; > 100 µM (inactive) in the test on CCRF-CEM; > 100 µM (inactive) in the test on SNB-19; 92.5 µM (inactive) in the test on U-251; > 100 µM (inactive) in the test on MDA-N; > 100 µM (inactive) in the test on HL-60. In addition, the GI50 in the test on SK-MEL-28 is > 100 µM (inactive); with EKVX, > 100 µM (inactive); with NCI/ADR-RES, 33.3 µM (inactive); with HCC 2998, 8.39 µM (inactive); in the test with MDA-MB-435, > 100 µM (inactive); in the test on LOX IMVI it was 15.2 µM (inactive). Moreover, the GI50 is > 100 µM (inactive) with TK-10; > 100 µM (inactive) in the test on OVCAR-4; 15.1 µM (inactive) in the test on NCI-H522; 18.3 µM (inactive) with SNB-75; 33.3 µM (inactive) in the test on IGROV-1; 38.6 µM (inactive) in the test on MOLT-4. For the same compound, the GI50 in the test on M14 is > 100 µM (inactive); with MCF7, 39.4 µM (inactive).
